Read-outs that look alike come from different tables or passages of the source.
Legend:
IRAK4 [1] = molecular target: T1, IRAK4 (Homo sapiens (Human), UniProt Q9NWZ3); assay: IRAK4 Biochemical HTRF Kinase Assay; details: read-out: IRAK4 HTRF biochemical: IC50
Procedure, shortened: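 IC50 values derive from non-linear regression of sixteen concentrations in duplicate. Kinase reaction ran 90 min at ambient temperature after adding 5 μM STK-S1 substrate, 10 mM ATP and 10 mM MgCl2 (reaction-solution levels, pre-dilution to 10 μl); phospho-peptide detected by HTRF after 60 min.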
Target sequence in this assay (Q9NWZ3 whole entry, species assumed): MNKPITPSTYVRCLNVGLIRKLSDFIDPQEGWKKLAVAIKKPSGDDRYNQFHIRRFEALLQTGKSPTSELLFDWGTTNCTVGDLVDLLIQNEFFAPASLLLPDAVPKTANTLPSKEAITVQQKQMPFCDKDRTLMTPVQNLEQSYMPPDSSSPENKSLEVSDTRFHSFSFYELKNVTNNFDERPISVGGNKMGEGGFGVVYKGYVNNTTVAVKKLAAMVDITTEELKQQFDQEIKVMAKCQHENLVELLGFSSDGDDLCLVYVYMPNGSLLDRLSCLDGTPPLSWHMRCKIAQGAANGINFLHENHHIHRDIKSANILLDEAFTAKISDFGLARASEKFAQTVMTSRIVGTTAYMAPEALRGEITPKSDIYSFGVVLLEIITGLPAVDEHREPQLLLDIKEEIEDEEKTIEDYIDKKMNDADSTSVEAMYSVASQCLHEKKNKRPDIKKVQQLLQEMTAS

IRAK4 [2] = molecular target: T1, IRAK4; assay: IRAK4 Degradation HiBiT Assay; details: HiBiT-tagged Jurkat cells, 4 hrs; for Dmax: Jurkat; for DC50: read-out: Cellular IRAK4 HiBiT: DC50
Target sequence in this assay (Q9NWZ3 whole entry): as the sequence (Q9NWZ3 whole entry, species assumed) above

[3] = read-out: Cellular IRAK4 HiBiT: Dmax, Table 5, multiple runs
[4] = read-out: Cellular IRAK4 HiBiT: Dmax, Table 4

Row | SMILES | IC50 (IRAK4 [1]; Table 5, multiple runs) [nM] | Dmax (IRAK4 [2]; [3]) [%] | DC50 (IRAK4 [2]; Table 5, multiple runs) [nM] | IC50 (IRAK4 [1]; Table 4) [nM] | Dmax (IRAK4 [2]; [4]) [%] | DC50 (IRAK4 [2]; Table 4) [nM]
1 | CC(C)Nc1cc(-c2ccc3cc(C#N)cnn23)ncc1-c1nnc(N2CCN(C(=O)CCCCCCCNc3cccc4c3C(=O)N(C3CCC(=O)NC3=O)C4=O)CC2)s1 (stereo not drawn) [Example 8, 7-(5-(5-(4-(8-((2-(2,6-dioxopiperidin-3-yl)-1,3-dioxoisoindolin-4-yl)amino)octanoyl)piperazin-1-yl)-1,3,4-thiadiazol-2-yl)-4-(isopropylamino)pyridin-2-yl)pyrrolo[1,2-b]pyridazine-3-carbonitrile] | 0.8 | 100 | 53.8 | 0.8 | 100 | 53.8
2 | CN[C@@H](C)C(=O)N[C@H](C(=O)N1C[C@@H](NC(=O)CCCCCCC(=O)N2CCN(c3nnc(-c4cnc(-c5ccc6cc(C#N)cnn56)cc4NC(C)C)s3)CC2)C[C@H]1C(=O)N[C@@H]1CCCc2ccccc21)C1CCCCC1 [Example 52, (2S,4S)-4-(8-(4-(5-(6-(3-cyanopyrrolo[1,2-b]pyridazin-7-yl)-4-(isopropylamino)pyridin-3-yl)-1,3,4-thiadiazol-2-yl)piperazin-1-yl)-8-oxooctanamido)-1-((S)-2-cyclohexyl-2-((S)-2-(methylamino)propanamido)acetyl)-N—((R)-1,2,3,4-tetrahydronaphthalen-1-yl)pyrrolidine-2-carboxamide] | 1.9 | 70 | 422 | 1.9 | 70 | 422
3 | CC(C)Nc1cc(-c2ccc3cc(C#N)cnn23)ncc1-c1nnc(N2CCN(CC3CCN(c4cccc5c4n(C)c(=O)n5C4CCC(=O)NC4=O)CC3)CC2)s1 (stereo not drawn) [Example 32, 7-(5-(5-(4-((1-(1-(2,6-dioxopiperidin-3-yl)-3-methyl-2-oxo-2,3-dihydro-1H-benzo[d]imidazol-4-yl)piperidin-4-yl)methyl)piperazin-1-yl)-1,3,4-thiadiazol-2-yl)-4-(isopropylamino)pyridin-2-yl)pyrrolo[1,2-b]pyridazine-3-carbonitrile] | 2.5 | 37 | 153 | 2.3 | 37 | 152
4 | CNc1cc(-c2ccc3cc(C#N)cnn23)ncc1-c1nnc(N2CC3CCC(C2)N3C2CCN(C(=O)Cc3ccc4c(c3)CN(C3CCC(=O)NC3=O)C4=O)CC2)s1 (stereo not drawn) [Example 164, 7-(5-(5-(8-(1-(2-(2-(2,6-dioxopiperidin-3-yl)-1-oxoisoindolin-5-yl)acetyl)piperidin-4-yl)-3,8-diazabicyclo[3.2.1]octan-3-yl)-1,3,4-thiadiazol-2-yl)-4-(methylamino)pyridin-2-yl)pyrrolo[1,2-b]pyridazine-3-carbonitrile] | 0.4 | 109 | 5.64 | – | – | –
5 | CC(C)Nc1cc(-c2ccc3cc(C#N)cnn23)ncc1-c1nnc([C@H]2CC[C@H](NC(=O)CCOCCOCCNc3cccc4c3C(=O)N(C3CCC(=O)NC3=O)C4=O)CC2)s1 (stereo partly drawn) [Example 3, N-((1r,4r)-4-(5-(6-(3-cyanopyrrolo[1,2-b]pyridazin-7-yl)-4-(isopropylamino)pyridin-3-yl)-1,3,4-thiadiazol-2-yl)cyclohexyl)-3-(2-(2-((2-(2,6-dioxopiperidin-3-yl)-1,3-dioxoisoindolin-4-yl)amino)ethoxy)ethoxy)propanamide] | 1.9 | 90 | 30.1 | 2.3 | 91 | 32
6 | CNc1cc(-c2ccc3cc(C#N)cnn23)ncc1-c1nnc(N2CCC(NC(=O)C[C@H](NC(=O)[C@@H]3C[C@@H](O)CN3C(=O)[C@@H](NC(=O)C3(F)CC3)C(C)(C)C)c3ccc(-c4scnc4C)cc3)CC2)s1 [Example 146, (2S,4R)—N—((S)-3-((1-(5-(6-(3-cyanopyrrolo[1,2-b]pyridazin-7-yl)-4-(methylamino)pyridin-3-yl)-1,3,4-thiadiazol-2-yl)piperidin-4-yl)amino)-1-(4-(4-methylthiazol-5-yl)phenyl)-3-oxopropyl)-1-((S)-2-(1-fluorocyclopropane-1-carboxamido)-3,3-dimethylbutanoyl)-4-hydroxypyrrolidine-2-carboxamide] | 2.9 | 77 | 231 | – | – | –

Continued, values first:

Row | IC50 (IRAK4 [1]; Table 5, multiple runs) [nM] | Dmax (IRAK4 [2]; [3]) [%] | DC50 (IRAK4 [2]; Table 5, multiple runs) [nM] | IC50 (IRAK4 [1]; Table 4) [nM] | Dmax (IRAK4 [2]; [4]) [%] | DC50 (IRAK4 [2]; Table 4) [nM] | SMILES
7 | 5.5 | 115 | 247 | – | – | – | Cc1ncsc1-c1ccc(CNC(=O)[C@@H]2C[C@@H](O)CN2C(=O)[C@@H](NC(=O)C2(F)CC2)C(C)(C)C)c(OCC(=O)N2CCC(CN3CCN(c4nnc(-c5cnc(-c6ccc7cc(C#N)cnn67)cc5NC(C)C)s4)CC3)CC2)c1 [Example 84, (2S,4R)—N-(2-(2-(4-((4-(5-(6-(3-cyanopyrrolo[1,2-b]pyridazin-7-yl)-4-(isopropylamino)pyridin-3-yl)-1,3,4-thiadiazol-2-yl)piperazin-1-yl)methyl)piperidin-1-yl)-2-oxoethoxy)-4-(4-methylthiazol-5-yl)benzyl)-1-((S)-2-(1-fluorocyclopropane-1-carboxamido)-3,3-dimethylbutanoyl)-4-hydroxypyrrolidine-2-carboxamide]
8 | 2.4 | 70 | 15.8 | – | – | – | CC(C)Nc1cc(-c2ccc3cc(C#N)cnn23)ncc1-c1nnc(N2CCC3(CCN(C(=O)c4ccc5c(c4)C(=O)N(C4CCC(=O)NC4=O)C5)CC3)CC2)s1 (stereo not drawn) [Example 87, 7-(5-(5-(9-(2-(2,6-dioxopiperidin-3-yl)-3-oxoisoindoline-5-carbonyl)-3,9-diazaspiro[5.5]undecan-3-yl)-1,3,4-thiadiazol-2-yl)-4-(isopropylamino)pyridin-2-yl)pyrrolo[1,2-b]pyridazine-3-carbonitrile]
9 | 2 | 60 | 22.9 | 1.8 | 65 | 23.8 | N#Cc1cnn2c(-c3cc(NC4CCOCC4)c(-c4nnc(C56CCC(NC(=O)CCOCCOCCNc7cccc8c7C(=O)N(C7CCC(=O)NC7=O)C8=O)(CC5)CC6)s4)cn3)ccc2c1 (stereo not drawn) [Example 1, N-(4-(5-(6-(3-cyanopyrrolo[1,2-b]pyridazin-7-yl)-4-((tetrahydro-2H-pyran-4-yl)amino)pyridin-3-yl)-1,3,4-thiadiazol-2-yl)bicyclo[2.2.2]octan-1-yl)-3-(2-(2-((2-(2,6-dioxopiperidin-3-yl)-1,3-dioxoisoindolin-4-yl)amino)ethoxy)ethoxy)propanamide]
10 | 0.8 | 112 | 14.9 | 0.89 | 110 | 17.3 | CNc1cc(-c2ccc3cc(C#N)cnn23)ncc1-c1nnc([C@H]2CC[C@H](NC(=O)CN3CCC4(CC3)CN(c3ccc5c(c3)C(=O)N(C3CCC(=O)NC3=O)C5=O)C4)CC2)s1 (stereo partly drawn) [Example 64, N-((1r,4r)-4-(5-(6-(3-cyanopyrrolo[1,2-b]pyridazin-7-yl)-4-(methylamino)pyridin-3-yl)-1,3,4-thiadiazol-2-yl)cyclohexyl)-2-(2-(2-(2,6-dioxopiperidin-3-yl)-1,3-dioxoisoindolin-5-yl)-2,7-diazaspiro[3.5]nonan-7-yl)acetamide]
11 | 1.5 | 111 | 58.2 | 1.51 | 103 | 74.5 | CNc1cc(-c2ccc3cc(C#N)cnn23)ncc1-c1nnc([C@H]2CC[C@H](NC(=O)CCCCCC(=O)N[C@H](C(=O)N3C[C@H](O)C[C@H]3C(=O)N[C@@H](C)c3ccc(-c4scnc4C)cc3)C(C)(C)C)CC2)s1 [Example 62, N1-((1r,4S)-4-(5-(6-(3-cyanopyrrolo[1,2-b]pyridazin-7-yl)-4-(methylamino)pyridin-3-yl)-1,3,4-thiadiazol-2-yl)cyclohexyl)-N7—((S)-1-((2S,4R)-4-hydroxy-2-(((S)-1-(4-(4-methylthiazol-5-yl)phenyl)ethyl)carbamoyl)pyrrolidin-1-yl)-3,3-dimethyl-1-oxobutan-2-yl)heptanediamide]
12 | 2 | 45 | 43.8 | – | – | – | CNc1cc(-c2ccc3cc(C#N)cnn23)ncc1-c1nnc(C23CCC(NC(=O)CCCCCNc4cccc5c4C(=O)N(C4CCC(=O)NC4=O)C5=O)(CC2)CC3)s1 (stereo not drawn) [Example 106, N-(4-(5-(6-(3-cyanopyrrolo[1,2-b]pyridazin-7-yl)-4-(methylamino)pyridin-3-yl)-1,3,4-thiadiazol-2-yl)bicyclo[2.2.2]octan-1-yl)-6-((2-(2,6-dioxopiperidin-3-yl)-1,3-dioxoisoindolin-4-yl)amino)hexanamide]
13 | 1.7 | 39 | 105 | 1.8 | 39 | 106 | CC(C)Nc1cc(-c2ccc3cc(C#N)cnn23)ncc1-c1nnc(N2CCN(C(=O)CNc3cccc4c3C(=O)N(C3CCC(=O)NC3=O)C4=O)CC2)s1 (stereo not drawn) [Example 31, 7-(5-(5-(4-((2-(2,6-dioxopiperidin-3-yl)-1,3-dioxoisoindolin-4-yl)glycyl)piperazin-1-yl)-1,3,4-thiadiazol-2-yl)-4-(isopropylamino)pyridin-2-yl)pyrrolo[1,2-b]pyridazine-3-carbonitrile]
14 | 0.5 | 105 | 31.5 | – | – | – | CNc1cc(-c2ccc3cc(C#N)cnn23)ncc1-c1nnc(N2CC3(CCN(C(=O)C4CCN(c5ccc6c(c5)C(=O)N(C5CCC(=O)NC5=O)C6=O)CC4)CC3)C2)s1 (stereo not drawn) [Example 176, 7-(5-(5-(7-(1-(2-(2,6-dioxopiperidin-3-yl)-1,3-dioxoisoindolin-5-yl)piperidine-4-carbonyl)-2,7-diazaspiro[3.5]nonan-2-yl)-1,3,4-thiadiazol-2-yl)-4-(methylamino)pyridin-2-yl)pyrrolo[1,2-b]pyridazine-3-carbonitrile]

From US12528814B2, “Bifunctional degraders of interleukin-1 receptor-associated kinases and therapeutic use thereof” (NURIX THERAPEUTICS, INC., priority 2020, dated 2026)
